From US11946027B2, “Systems and methods for monitoring behavior of cells and/or tissues in culturing media” (Purdue Research Foundation, priority 2019, dated 2024)

Columns and labels:
cardiomyocytes = assay: ECG recording of cardiomyocytes on the scaffold in response to norepinephrine; format: cell-based, neonatal mice; details: cardiomyocytes at day 8
Description: The beating rate decreased from 288 bpm to 60 bpm and to 36 bpm, whereas the amplitude increased from 66 μV to 83 μV and to 511 μV at day 2, 6, and 8, respectively. The results imply that spontaneous contractions of the individual cells initially occurred, followed by stronger and more synchronized contractions as the cells become more in contact each other. […] A representative microscopy image in FIG. 4C highlights the embedded four-channel-multiplexed sensing electrodes with the cardiomyocytes at day 8 within the domain of 1.4×1.4 mm^2. The results in FIG. 4D indicate the synchronized beating rate (about 0.63 Hz), amplitude (638˜763 μV), and peak width (˜about 0.6 sec). 3D mapping results of the action potentials (FIG. 4E) obtained from the total 48 ECG sensors (4×4 array in each layer) reveal the spontaneous beating activities of the cardiomyocytes at day 2, 6, and 8 without showing any toxic effect.
For cardiomyocyte isolation, primary neonatal mice cardiomyocytes were prepared according to the Pierce Primary Cardiomyocyte Isolation Kit (Thermo Scientific, USA). Briefly, neonatal hearts were isolated from about 1 to 3 days old neonatal mice and placed into separate sterile microcentrifuge tubes containing 500 μL of ice cold Hank's Balanced Salt Solution (HBSS). […]

MCF7 cells [1] = assay: Impedimetric cytotoxicity of MCF7 cells on the scaffold system with Dox; format: cell-based; details: 30 kHz
Description: The scaffold system remained afloat on the medium, wherein the recording electrodes were entirely surrounded with polyimide elastomers. The flexible conductors were ACF cables (HST-9805-210, Elform, Inc., USA) placed on the sponge-like PDMS buoyant member and wired to an external data acquisition system (E4980AL Precision LCR meter, Keysight Technologies, USA) through the air. […] From about 16 hours later, drastic increase of the impedance occurred due to the cell aggregation and continuous proliferation. This tendency was more obvious in the MCF7 cells because the population doubling time of MCF7 cells (about 29 hours) is shorter than that of SKOV3 cells (about 48 hours) and HUVEC cells (about 60 hours). Consistently, the impedance of the MCF7 cells increased proportionally to the cellular density (FIG. 3C).
(§1) The impedance was measured by using an LCR meter (Agilent 4294A, USA) with the voltage (between two adjacent recording electrodes) of about 1 mV for 48 hours at the frequencies of 1, 5, 10, 20, 30, 50, 100, 150, 200 and 250 kHz. The scaffold system was placed in the incubator (5% CO^2, 37° C.; Thermo Scientific, USA) and wired to the LCR meter located outside of the incubator via flexible ACF cables. The data was collected every 2 hours from the scaffold system.

MCF7 cells [2] = assay: Real-time impedance monitoring in three-layer stacked scaffold seeded with MCF7 cells, Dox introduced on the top; format: cell-based; details: 1 mM Dox introduced on the top at 1-day incubation
Description: In this configuration, each layer of the scaffold system remains spaced apart a fixed distance of about 5 mm along the perimeter by using spacers made of PDMS.
as §1

[3] = hydrophilic and water-soluble; Doxorubicin Hydrochloride, Fisher; cited from earlier work

SMILES	increase of beating rate (cardiomyocytes; addition of 100 μL of norepinephrine (bitartrate solution 10 μM) into the medium)	time after NE administration to increase of beating rate (cardiomyocytes; addition of 100 μL of norepinephrine into the medium)	time after drug administration at which impedance started to decrease (MCF7 cells [1]; 100 μM Dox introduced at 1-day incubation)	decrease of the impedance (MCF7 cells [1]; low drug administration 10 μM)	rate of impedance decrease following drug administration, bottom layer (MCF7 cells [2]; bottom scaffold layer)	rate of impedance decrease following drug administration, middle layer (MCF7 cells [2]; middle scaffold layer)	solubility [3]
NC[C@H](O)c1ccc(O)c(O)c1 [norepinephrine]	nearly two-fold	≤ 3 min	–	–	–	–	–
COc1cccc2c1C(=O)c1c(O)c3c(c(O)c1C2=O)C[C@@](O)(C(=O)CO)C[C@@H]3O[C@H]1C[C@H](N)[C@H](O)[C@H](C)O1 [Dox, doxorubicin]	–	–	≤ 4 h	no substantial decrease of the impedance	about 1.6 Ω/hr	about 5.4 Ω/hr	about 50 mg/ml
